Series [1] deals with EndoC-betaH1. Briefly: Cytotoxicity against human EndoC-betaH1 cells assessed as reduction in cell viability at 10 uM measured after 24 to 72 hrs by PrestoBlue cell viability assay. Format: toxicity, cell-based. The settings on record: endoc-betah1, 10 µM, time 24-72 hrs.
Series [2] concerns EndoC-betaH1. Briefly: Induction of insulin secretion in human EndoC-betaH1 cells at 5 uM incubated for 1 hr by ELISA method. Format: functional, cell-based.
Series [3] concerns EndoC-betaH1. The series is described as follows: Induction of glucose stimulated insulin secretion in human EndoC-betaH1 cells at 5 uM incubated for 1 hr in presence of GPR40 antagonist by ELISA method. The series is classed as functional, cell-based.
In series [4] the test system is EndoC-betaH1. Briefly: Induction of glucose stimulated insulin secretion in human EndoC-betaH1 cells at 5 uM incubated for 1 hr in presence of GPR55 antagonist by ELISA method. Format: functional, cell-based.
Series [5] deals with EndoC-betaH1. The series is described as follows: Induction of glucose stimulated insulin secretion in human EndoC-betaH1 cells at 5 uM incubated for 1 hr in presence of GPR120 antagonist by ELISA method. The series is classed as functional, cell-based. In general terms: ELISA stands for enzyme-linked immunosorbent assay.
Series [6] concerns EndoC-betaH1. The series is described as follows: Induction of glucose stimulated insulin secretion in human EndoC-betaH1 cells at 5 uM incubated for 1 hr in presence of GPR119 antagonist by ELISA method (reference value: 2.03 fmol/microg). The series is classed as functional.
Another series concerns Cell membrane. The series is described as follows: Induction of cell membrane permeabilization in human EndoC-betaH1 cells at 10 uM measured upto 3.5 mins propidium iodide staining based fluorescence analysis. Format: subcellular.
Series [7] relates to EndoC-betaH1. The series is described as follows: Effect on intracellular calcium mobilization in human EndoC-betaH1 cells at 5 uM measured after 3 mins. Format: functional, cell-based.
Series [8] is described as follows: Induction of cAMP production in human EndoC-betaH1 cells at 5 uM by ELISA method. Format: functional. On the technique in general: Changes in cAMP serve as a functional read-out for many G protein-coupled receptors.
For series [9], the system named is EndoC-betaH1. The series is described as follows: Induction of cAMP production in human EndoC-betaH1 cells at 5 uM in presence of GPR40 antagonist by ELISA method. Format: functional, cell-based.
Series [10] deals with EndoC-betaH1. The series is described as follows: Induction of cAMP production in human EndoC-betaH1 cells at 5 uM in presence of GPR120 antagonist by ELISA method. Format: functional, cell-based.
For series [11], the system named is EndoC-betaH1. The series is described as follows: Induction of cAMP production in human EndoC-betaH1 cells at 5 uM in presence of GPR55 antagonist by ELISA method. Format: functional, cell-based.
A short description of series [12]: Induction of cAMP production in human EndoC-betaH1 cells at 5 uM measured per mg of protein in presence of GPR119 antagonist by ELISA method. The series is classed as functional.
The test system of series [13] is EndoC-betaH1. The series is described as follows: Induction of glucose stimulated insulin secretion in human EndoC-betaH1 cells at 1 uM incubated for 1 hr in presence of GPR119 antagonist by ELISA method. Format: functional, cell-based.
Series [14] deals with EndoC-betaH1. The series is described as follows: Induction of glucose stimulated insulin secretion in human EndoC-betaH1 cells transfected with siRNA measured after 48 hrs in presence of GPR119 antagonist by ELISA method. Format: functional, cell-based.
For series [15], the system named is EndoC-betaH1. Briefly: Induction of glucose stimulated insulin secretion in human EndoC-betaH1 cells at 5 uM incubated for 1 hr in presence of GPR119 antagonist by ELISA method. Format: functional, cell-based.
Series [16] deals with EndoC-betaH1. The series is described as follows: Induction of cAMP production in human EndoC-betaH1 cells at 5 uM in presence of GPR119 antagonist by ELISA method. Format: functional, cell-based.
Series [17] relates to EndoC-betaH1. The series is described as follows: Induction of glucose stimulated insulin secretion in human EndoC-betaH1 cells at 100 nM incubated for 1 hr in presence of GPR119 antagonist by ELISA method. Format: functional, cell-based.
Series [18] deals with EndoC-betaH1. Briefly: Cytotoxicity against human EndoC-betaH1 cells assessed as reduction in cell viability at 10 to 1000 uM measured after 24 to 72 hrs by PrestoBlue cell viability assay. Particulars: endoc-betah1, 1000 µM, dose lower 10 µM, time lower 24 hrs, dose upper 1000 µM, time upper 72 hrs. The series is classed as toxicity, cell-based.
Series [19] deals with EndoC-betaH1. Briefly: Cytotoxicity against human EndoC-betaH1 cells assessed as reduction in cell viability at 1 uM measured after 24 to 72 hrs by PrestoBlue cell viability assay. The settings on record: endoc-betah1, 1 µM, time 24-72 hrs. The series is classed as toxicity, cell-based.
Series [20] has as its system EndoC-betaH1. Briefly: Cytotoxicity against human EndoC-betaH1 cells assessed as reduction in cell viability at 5 uM measured after 48 to 72 hrs by PrestoBlue cell viability assay. Format: toxicity, cell-based. Particulars: endoc-betah1, 5 µM, time 48-72 hrs.
Series [21] relates to EndoC-betaH1. Briefly: Induction of glucose stimulated insulin secretion in human EndoC-betaH1 cells at 5 uM incubated for 1 hr in presence of GPR119 antagonist by ELISA method (reference value: 1.97 fmol/microg). Format: functional.

The source of these data is ChEMBL document CHEMBL5357063, “Lysophosphatidylcholines Enriched with cis and trans Palmitoleic Acid Regulate Insulin Secretion via GPR119 Receptor” (ACS Med Chem Lett, 2024).

The source made the active and inactive calls. The rule behind the calls is not given here.

Consider `CCCCCC/C=C\CCCCCCCC(=O)OC[C@@H](O)COP(=O)([O-])OCC[N+](C)(C)C`, for which the Activity result in the series with EndoC-betaH1 [1] was “Non-Toxic”; in the series on EndoC-betaH1 [6] it was 1.47 fmol/µg; in [8] it was 1.87 pg/µg; in series [12], 0.8 pmol. The result in the series on EndoC-betaH1 [2], in the series on EndoC-betaH1 [3], with EndoC-betaH1 [4], with EndoC-betaH1 [5], in the series on EndoC-betaH1 [9] and with EndoC-betaH1 [10] was Active. In addition, the outcome in the series on EndoC-betaH1 [13] was Active. Moreover, the outcome in the series with Cell membrane, in the series on EndoC-betaH1 [7], in the series on EndoC-betaH1 [11] and in the series with EndoC-betaH1 [14] was inactive.

Take `CCCCCCCCCCCCCCCC(=O)OC[C@@H](O)COP(=O)([O-])OCC[N+](C)(C)C`: the outcome in the series on EndoC-betaH1 [2], in the series on EndoC-betaH1 [3], with EndoC-betaH1 [4], in the series with EndoC-betaH1 [5], in the series on EndoC-betaH1 [9] and in the series with EndoC-betaH1 [10] was Active. Besides, the outcome in the series on EndoC-betaH1 [11] and with EndoC-betaH1 [16] was Active. Besides, the outcome with EndoC-betaH1 [15], in the series with Cell membrane and with EndoC-betaH1 [7] was inactive.

`CC(C)c1noc(C2CCN(c3ncnc(Nc4ccc(S(C)(=O)=O)cc4F)c3[N+](=O)[O-])CC2)n1`: the result with EndoC-betaH1 [17] was Active.

As for `CCCCCC/C=C/CCCCCCCC(=O)OC[C@@H](O)COP(=O)([O-])OCC[N+](C)(C)C`, the Activity entry is “Toxic” with EndoC-betaH1 [18]; “Non-Toxic” in the series on EndoC-betaH1 [19]; “Toxic” with EndoC-betaH1 [20]; 1.34 fmol/µg with EndoC-betaH1 [21]; 0.65 pmol in series [12]. Further, the outcome in the series with EndoC-betaH1 [2], in the series with EndoC-betaH1 [3], with EndoC-betaH1 [4], in the series with EndoC-betaH1 [5], in the series on EndoC-betaH1 [9] and in the series with EndoC-betaH1 [10] was Active. Moreover, the result in the series with Cell membrane, with EndoC-betaH1 [7] and with EndoC-betaH1 [14] was inactive.
